According to patent publication US7115614B2, “Method of treating brain ischemia” (Kyowa Hakko Kogyo Co., Ltd., priority 1997, dated 2006):
Values joined by “and” are separate entries in the source; they are usually repeats but may differ in a detail not shown here. Identical values can stand only once.

Key:
dopaminergic neurons = test: Inhibitory action on neurodegeneration: MPTP HCl-treated mice, specific [3H]-mazindol binding in the striatum; assay type: in vivo, C57BL/6NCrj mice; conditions: for amount of specifically bound [3H]-mazindol in the striatum: striatum removed after 1 week, mean ± standard error
Protocol: The experiment was conducted according to the method of Sundstrom et al. (Brain. Res. Bulletin, 21, 257–263 (1988)).
In the experiment, 9- to 10-week-old male C57BL/6NCrj mice (supplied by Nippon Charles River) were used. During the period of preliminary breeding, the animals were kept in a laboratory at room temperature (22 to 24° C.) under 50 to 60% humidity and allowed food and water ad libitum.
1-Methyl-4-phenyl-1,2,3,6-tetrahydropyridine hydrochloride (abbreviated hereinafter as MPTP HCl (RBI Co., Ltd.)) was dissolved at a concentration of 4 mg/ml in physiological saline. A test compound was suspended at a concentration of 1 mg/ml in 0.3% […]. Each test group consisted of 9 to 10 animals, and a control group was intraperitoneally given physiological saline, and an MPTP HCl administration group and an MPTP HCl+test compound administration group were intraperitoneally given MPTP HCl (40 mg/kg).
After 1 hour, the control group and the MPTP HCl administration group were orally given 0.3% Tween, and the MPTP HCl+test compound administration group was orally given the test compound (10 mg/kg). After 1 week, the animals were decapitated, and the striatum was removed therefrom under cooling on ice. The striatum was stored in a deep freezer (<−80° C.) before a binding experiment.
A [^3H]-mazindol binding test was conducted in the following method. A striatum and 300 μl of buffer (120 mM NaCl, 5 mM KCl, 50 mM Tris, pH 7.9) were put into a micro-centrifuge tube and homogenized by portable homogenizer S-203 (manufactured by Ikeda Rika) and centrifuged at 15,000 rpm, 4° C. for 5 minutes (by KUBOTA 1710). The precipitates were suspended in 300 μl of buffer and then centrifuged again at 15,000 rpm, 4° C. for 5 minutes. The precipitates were suspended in 500 μl of buffer and then distributed into four test tubes in 100 μl portions. The remaining suspension (100 μl) was used for protein quantification. To determine non-specific binding, nomifensine maleate (RBI Co., Ltd.) (final concentration: 10 μM) as an inhibitor of dopamine uptake was added to two test tubes among the four test tubes. The binding reaction was initiated by adding 25 μl of [^3H]-mazindol (final concentration: 10 nM) (Spec. Act. 888 GBq/mmol, a product of NET). The mixture was incubated for 1 hour under cooling on ice, and the striatum homogenate was adsorbed onto a glass filter (Whatman, GF/B) in a cell harvester and washed three times with 5 ml of buffer. The radioactivity on the glass filter was measured with a liquid scintillation counter. For each striatum, specific [^3H]-mazindol binding was determined by subtracting the average of non-specific [^3H]-mazindol binding from the average of total [^3H]-mazindol binding.
Protein quantification was conducted by use of a Bio-Rad DC protein assay kit (Bio-Rad Co., Ltd.) with bovine serum albumin (Sigma Co., Ltd.) as a standard. Specific [^3H]-mazindol binding was expressed as the amount of bound [^3H]-mazindol per unit weight of protein, and the mean±standard error was determined for each group (10 animals).
In Table 2, the results are expressed in terms of the amount of specifically bound [^3H]-mazindol (fmol/mg protein) in the striatum.

dd-strain male mice = test: Acute toxicity test (minimum lethal dose); assay type: in vivo; conditions: oral administration, mortality seven days after the administration
From the text: Test compounds were orally or intraperitoneally administered to groups of dd-strain male mice weighing 20±1 g, each group consisting of three mice.

[1] = MPTP HCl 40 mg/kg i.p., test compound 10 mg/kg orally after 1 hour

SMILES | amount of specifically bound [3H]-mazindol in the striatum (dopaminergic neurons; [1]) [fmol/mg protein] | reduction of the amount of specifically bound [3H]-mazindol by administration of MPTP HCl (dopaminergic neurons; statement in words, 10 mg/kg orally, MPTP HCl mice) | minimum lethal dose (MLD) (dd-strain male mice) | amount of specifically bound [3H]-mazindol in the striatum (dopaminergic neurons; MPTP HCl 40 mg/kg i.p. alone (0.3% Tween orally after 1 hour), hydrochloride)
CCn1c(=O)c2c(nc(/C=C/c3ccc(OC)c(OC)c3)n2C)n(CC)c1=O [Compound 1, (E)-1,3-diethyl-8-(3,4-dimethoxystyryl)-7-methylxanthine] | 950.9 ± 54.1 | inhibited | greater than 1000 mg/kg | 
CCCn1c(=O)c2c(nc(/C=C/c3ccc(OC)c(OC)c3)n2C)n(CCC)c1=O [Compound 2, (E)-8-(3,4-dimethoxystyryl)-1,3-dipropyl-7-methylxanthine] | 784.8 ± 41.6 |  |  | 
CCn1c(=O)c2c(nc(/C=C/c3cc(OC)c4c(c3)OCO4)n2C)n(CC)c1=O [Compound 3, (E)-1,3-diethyl-8-(3-methoxy-4,5-methylenedioxystyryl)-7-methylxanthine] | 794.9 ± 28.5 |  |  | 
COc1cc(/C=C/c2nc3c(c(=O)n(C)c(=O)n3C)n2C)cc(OC)c1OC [Compound 4, (E)-8-(3,4,5-trimethoxystyryl)caffeine] | 923.5 ± 51.1 |  |  | 
CN1CC=C(c2ccccc2)CC1.Cl [MPTP HCl, 1-Methyl-4-phenyl-1,2,3,6-tetrahydropyridine hydrochloride, reference compound] |  |  |  | 674.2 ± 38.1 fmol/mg protein and 616.3 ± 32.8 fmol/mg protein and 621.2 ± 27.7 fmol/mg protein
